Data on two compounds can be found in patent US11072592B2, “Small molecules that enable cartilage rejuvenation” (The Regents of the University of California, priority 2015, dated 2021).

One assay deals with pSTAT3 and MYC. Description: pSTAT3 and MYC in other cells/tissues. It counts as cell-based. The conditions noted are these: embryonic stem cells and the heart; unpublished preliminary data. An excerpt: Based on the functional properties elicited by RCGD 423, we propose that it (or compounds functionally similar to it) may represent core components of treatment regimens for articular cartilage injury.

For the next assay, the system named is p-STAT3/c-MYC. Description: Secondary screening for effects on p-STAT3/c-MYC protein levels. It counts as cell-based. The conditions noted are these: secondary screening of 75 compounds. As for the experimental part: In a clinical setting, treatment with exogenous growth factors would present a difficult and expensive strategy. To address this, our group designed a high throughput screen to identify small molecule modulators of chondrogenic differentiation based on the prevention of the hypertrophy-associated marker collagen X (COLX). […] Importantly, the stimulatory effect of CRMs on p-STAT3 and c-MYC was reversible; protein levels of both p-STAT-3 and c-MYC decreased 48 hours after CRM-398 or -423 withdrawal (data not shown). Identification of such compounds can not only allow us to control differentiation of chondrocytes, but also manipulate the expression of STAT3 and c-MYC to achieve rejuvenation of adult chondrocytes. CRM-398 and -423 can be tested in parallel with LIF and their effects on adult articular chondrocyte activation can be assessed as described herein.
A strategy for screening for molecules with anti-differentiation effects includes observation of primary limb mesenchyme from mCherry-COL10A1 mice. The screening strategy identifies molecules with STAT3 and c-Myc modulatory activity. FIG. 14 depicts exemplary results for a screening conducted on 170,000 compounds, resulting in 469 hits. FIG. 15 depicts percentage positive z-scores for the 469 compounds identified. FIG. 16 depicts a further screening analysis of the previously identified 469 hit compounds, resulting in 75 refined hits. […]

Assay [1] concerns human adult articular chondrocytes. Description: RNA-Seq of human adult articular chondrocytes. It counts as cell-based. The following applies: n=7.
For assay [2] the test system is unchanged. Description: Cellular metabolism (Seahorse ECAR and OCR), human adult articular chondrocytes. It counts as cell-based. As for the experimental part:
The mitochondrial assay cellular oxygen consumption and mitochondrial function was carried out to measure basal respiration using XF24 instrument (Seahorse Biosciences) according to manufacturer instructions. Tested cells (100,000 cells per well) we plated into 24-well test plates 48 hours prior to experimentation. Oxygen consumption rates and extracellular acidification rates were measured every 10 minutes for up to 60 minutes (Rate 1-6).

The subject of assay [3] is pig articular cartilage biopsy punches with defects. Put plainly: Repair of defects in adult pig articular cartilage biopsy punches in vitro. In kind it is cell-based. The conditions noted are these: Matrigel with microspheres, 5 weeks of culture. The protocol:
FIGS. 31A-31D. […] (FIG. 31A) Experiments were conducted to test the tissue reparative function of compounds disclosed herein. FIG. 31A depicts histograms of amounts of glycosaminoglycans (GAGs) and collagen 2 observed under control conditions and after administration of RCGD 423. (FIG. 31B) The duration of the effects elicited by RCGD 423 was determined by applying the drug for 24 hours and then washing it out. Protein levels of pSTAT3 and MYC were determined at the indicated time points after wash out; histone H3 was used as a loading control. (FIG. 31C) Protein levels of MYC and pSTAT3 in adult pig articular chondrocytes were used to determine the time frame in which release of RCGD 423 from PLGA microspheres reaches efficacious levels. Supernatant from drug-loaded PLGA microspheres was harvested at the indicated intervals and applied to pig chondrocytes. Histone H3 was used as a loading control. (FIG. 31D) Repair in a tissue context was assessed by removing small explants from a biopsy punch of adult pig articular cartilage. Matrigel with or without RCGD 423-loaded microspheres was applied to the defects. Safranin O staining was performed on sections of explants following 5 weeks of culture; border of defect and intact tissue is shown.
We also tested whether RCGD 423 could initiate healing of small defects generated on the surface of intact articular cartilage. […]

In the next assay the test system is cartilage explants. Put plainly: Cartilage explant culture: tissue expansion, COL2 and GAG content. In kind it is cell-based, pig. The conditions noted are these: for expansion of cartilage tissue in explants: cartilage explants/plugs in culture. An excerpt: The same stimulatory effect was achieved after treatment of explants with CRMs identified in our small molecule screen. […] This can test if activation of p-STAT3 and c-MYC by selected small molecules CRM-398 and -423 can result in in situ expansion of articular cartilage tissue.
Mature articular cartilage is comprised of chondrocytes contained within lacunae surrounded by dense extracellular matrix. In order for a regenerative response to occur, proliferation, survival and migration must all proceed in concert. […] We designed two sets of experiments to assess the ability of RCGD 423 to operate in this capacity. First, RCGD 423 or cytokines implicated in the growth and differentiation of articular cartilage were incubated with small plugs of cartilage tissue; after 5 weeks, the amount of COL2 and glycosaminoglycans (GAGs) were determined.
Cartilage explants were washed with PBS and then directly digested or stored at […]. For digestion, explants were transferred in digestion buffer composed of 1 mg/mL proteinase K in Tris/Ethylene diamine tetra-acetic acid (EDTA) buffer (pH 7.6) containing 18.5 μg/mL iodoacetamide and 1 μg/mL pepstatin A) for 16-72 h at 56° C. After complete digestion the GAG content was spectrophotometrically determined with 1,9-dimethylmethylene blue chloride staining in the phosphate buffer with ethylene diamine tetra-acetic acid buffer (14.2 g/L Na2HPO4 and 3.72 g/L Na2EDTA, pH 6.5) using an Infinite M1000 Pro microplate reader (Tecan) at an absorbance of 520 nm with chondroitin sulfate as a standard. Amount of total DNA in explants was determined by a CyQuant DNA Kit (Molecular Probes by Life Technology) using Qubit 1.0 fluorometer (Invitrogen).
Cultured explants were first digested in testicular hyaluronidase (0.05% in 50 mM HEPES) for 2 hours at 37° C. 0.5M glacial acetic acid was added to digestion solution to maximize the collagen swelling and provide best pepsin access. Pepsin (250 μg/ml) was then used to further digest the pellets in combination with rotation and occasional gentle vortexing at 4° C. for 18-24 hours. Cold tris base and NaOH were added to the digestion solution to neutralize the acetic acid. Digestion solution was vigorously vortexed immediately, and subsequently rotated at 4° C. overnight to maximize collagen solubility. Tubes were centrifuged to separate undigested tissue and supernatant. Any undigested tissue was subjected to the digestion process again. All supernatants were combined for ELISA. Concentration of collagen II in the supernatant was measured by Type I/II Collagen Detection Kit (Chondrex, Inc, Redmond, Wash.), according to manufacturer's instruction and normalized either to DNA content or wet weight of the explants determined prior to experimentation.

“Also recorded” adds a separate entry of the source.

In the case of `Brc1ccc(Nc2nc(-c3ccccc3)cs2)cc1` [RCGD 423, N-(4-Bromophenyl)-4-phenyl-1,3-thiazol-2-amine], the “pSTAT3 and MYC proteins in other cells/tissues” value in the assay on pSTAT3 and MYC is “promotes increases”. Further, the “effects on p-STAT3/c-MYC protein levels” value in the assay on p-STAT3/c-MYC is listed as “most prominent effects”. Besides, the “enriched transcripts (increased more than 1.5-fold in 4/7 replicates)” value in assay [1] is reported as 1,244. Further, in assay [2], the cellular respiration entry is recorded as “increased” and the levels of glycolysis entry is listed as “unchanged”. Besides, the “repair / remodeling of cartilage defects” value in assay [3] is “promotes cartilage repair”. In the assay on cartilage explants (after 5 weeks), the COL2 result is “increases” and the “glycosaminoglycans (GAGs)” value is given as “increases”. In addition, in the assay with cartilage explants, the “expansion of cartilage tissue in explants” value is on record as “strong expansion”.
Turning to “LIF: interleukin 6 (IL-6)-class cytokine”, the “expansion of cartilage tissue in explants” value with cartilage explants is listed as “significant expansion; also recorded: small expansions”.
